Legend:
[1] = Pharmacokinetics in C57 mice; details: C57, mouse, in vivo
Method: After subcutaneous or intravenous administration to C57 mice, plasma was collected and the drug concentration in plasma was determined to illustrate the in vivo pharmacokinetic properties of the compound according to the present invention. […] 20.0 µL of thawed plasma sample was taken. 20 µL of 50% aqueous methanol solution (containing 100 ng mL^-1 Tolbutamide) and 60 µL of acetonitrile were added sequentially to precipitate protein. The mixture was vortexed for 5 minutes, and centrifuged at 4815 rpm for 8 minutes. 50.0 µL of the supernatant was taken, into which 50.0 µL of 0.5% aqueous formic acid solution was added. The mixture was vortexed for 5 minutes. 50 µL of the mixture solution was sampled and injected into the LC-MS/MS to determine the drug concentration in plasma. Based on the drug concentration in plasma of the compounds in C57 mice, the pharmacokinetic parameters were calculated by applying the software Winnolin 8.3 in a non-compartmental model, and the results were shown in Table 7 and Table 8 below. Table 7 Average Pharmacokinetic Parameters after Single Subcutaneous Administration to Mice

[2] = Pharmacokinetics in cynomolgus monkeys; details: cynomolgus monkey, in vivo, sc
Method: After subcutaneous or intravenous administration to cynomolgus monkeys, plasma was collected and the drug concentration in plasma was determined to illustrate the in vivo pharmacokinetic properties of the compound according to the present invention. […] 70.0 µL of thawed plasma sample was taken. 70 µL of acetonitrile (containing 1 ng/ml of the internal standard) was added to precipitate protein. […] The mixture was vortexed for 5 minutes. 10 µL of the mixture solution was sampled and injected into the LC-MS/MS to determine the drug concentration in plasma. […] Table 9 Average Pharmacokinetic Parameters after Single Subcutaneous Administration to Cynomolgus Monkeys

[3] = system: db/db mice; experiment: Pharmacodynamic effects in db/db mice, single subcutaneous administration (blood glucose); type: in vivo; details: single s.c. 10 nmol/kg
Method in brief: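 Male db/db mice aged 8-9 weeks, fed ad libitum, were grouped by initial glucose and body weight (n=6) and dosed once subcutaneously. Random blood glucose from tail tip was tracked over 0 to 120 hours against vehicle. Hypoglycemic duration is the longest time with a significant difference from vehicle (T-test, p<0.05).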

[4] = system: db/db mice; experiment: Multiple administration experiment on db/db mice; type: in vivo; details: db/db mice, s.c. every 3 days for 4 weeks, Mean±SEM, 6 mice
Method: "Minimum effective dose" as disclosed in the present invention refers to the minimum administration dose at which the drug effect is produced.
"Efficacy dose" as disclosed in the present invention refers to the administration dose at which the drug effect is produced.
In this study, 7-8 week old male db/db mice were used. The db/db mice were placed in an individual ventilated cage (IVC) facility with a controlled temperature (20-26°C) and humidity (40-70%) and a controlled 12:12 h light-dark cycle. The mice received food and water ad libitum. Blood were sampled at the tail tip, and the base blood glucose was measured by a Roche blood glucose meter. The mice were randomly divided into groups according to the initial blood glucose and initial body weight (n=6/group), and each group had similar body weight and blood glucose.
The mice were subcutaneously administrated every 3 days for 4 weeks. Subcutaneous administration was conducted on days 1, 4, 7, 10, 13, 16, 19, 22 and 25. Random blood glucose was recorded every 3 days throughout the study. On day 28, the fasting blood glucose was measured. Then the blood was collected by orbital blood sampling. After the orbital blood sampling, the animals were sacrificed, and the liver was taken and weighed. After 1 to 2 hours, the collected blood was centrifuged at 3000 rpm for 10 min to separate the serum. Biochemical indicators such as triglyceride (TG), alanine aminotransferase (ALT), and total bilirubin (TBIL) were determined with a biochemical analyzer. The data results were statistically analyzed using GraphPad Prism8, and the statistical differences among the groups were analyzed following T-Test. Significant differences were identified at p<0.05.

[5] = molecular target: human GLP-1R (Homo sapiens, UniProt P43220); experiment: In vitro binding activity to human GLP-1 receptor ([125I]GLP-1 displacement, crude cell membranes); parameters: expressed in transfected cells; details: ratio of the Ki value of the endogenous ligand to the Ki value of the test compound; larger ratio = stronger binding
human GLP-1R, sequence (P43220 24-463): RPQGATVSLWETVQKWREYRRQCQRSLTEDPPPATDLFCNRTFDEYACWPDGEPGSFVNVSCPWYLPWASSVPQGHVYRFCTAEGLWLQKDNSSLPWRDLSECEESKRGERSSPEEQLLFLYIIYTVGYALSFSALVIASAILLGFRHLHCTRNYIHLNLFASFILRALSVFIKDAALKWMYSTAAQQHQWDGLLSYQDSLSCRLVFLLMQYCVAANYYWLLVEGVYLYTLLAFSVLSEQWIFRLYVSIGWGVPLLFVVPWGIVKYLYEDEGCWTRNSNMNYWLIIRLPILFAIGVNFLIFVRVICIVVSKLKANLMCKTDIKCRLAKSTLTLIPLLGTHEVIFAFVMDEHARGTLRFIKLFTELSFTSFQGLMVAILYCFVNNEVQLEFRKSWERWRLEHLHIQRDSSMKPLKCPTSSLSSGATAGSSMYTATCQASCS

Compound: CC[C@H](C)[C@H](NC(=O)C(C)(C)NC(=O)[C@H](Cc1ccc(O)cc1)NC(=O)[C@H](CC(=O)O)NC(=O)[C@H](CO)NC(=O)[C@@H](NC(=O)C(C)(Cc1ccccc1)NC(=O)[C@@H](NC(=O)CNC(=O)[C@H](CCC(=O)O)NC(=O)C(C)(C)NC(=O)[C@@H](N)Cc1ccc(O)cc1)[C@@H](C)O)[C@@H](C)O)C(=O)NC(C)(C)C(=O)N[C@@H](CC(C)C)C(=O)N[C@@H](CC(=O)O)C(=O)N[C@@H](CCCCN)C(=O)N[C@@H](CCC(N)=O)C(=O)N[C@@H](C)C(=O)N[C@@H](CCC(N)=O)C(=O)N[C@@H](C)C(=O)N[C@@H](CCC(=O)O)C(=O)N[C@@H](Cc1ccccc1)C(=O)N[C@H](C(=O)N[C@@H](CCCCN)C(=O)N[C@@H](Cc1c[nH]c2ccccc12)C(=O)N[C@@H](CC(C)C)C(=O)N[C@@H](CC(C)C)C(=O)N[C@@H](CCCCNC(=O)COCCOCCNC(=O)COCCOCCNC(=O)COCCOCCNC(=O)CC[C@H](NC(=O)CCCCCCCCCCCCCCCCCCCCC(=O)O)C(=O)O)C(=O)NCC(=O)NCC(=O)N1CCC[C@H]1C(=O)N[C@@H](CO)C(=O)N[C@@H](CO)C(=O)NCC(=O)N[C@@H](C)C(=O)N1CCC[C@H]1C(=O)N1CCC[C@H]1C(=O)N1CCC[C@H]1C(=O)N[C@@H](CO)C(=O)N[C@@H](CCCCN)C(N)=O)C(C)C (stereo partly drawn) [Compound P020]
- AUC(0-inf) ([1]; iv): 17400 ng·h/mL
- AUC(0-t) ([1]; iv): 16300 ng·h/mL
- C0 ([1]; iv): 1820 ng/mL
- half-life ([1]; iv): 16.7 h
- MRT ([1]; iv, MRT(0-t)): 16.8 h
- MRT ([1]; iv, MRT(0-∞)): 21.8 h
- AUC(0-inf) ([1]; sc): 21100 ng·h/mL
- AUC(0-t) ([1]; sc): 19000 ng·h/mL
- Cmax ([1]; sc): 836 ng/mL
- Tmax ([1]; sc): 4.25 h
- half-life ([1]; sc): 19.9 h
- MRT ([1]; sc, MRT(0-t)): 21.8 h
- MRT ([1]; sc, MRT(0-∞)): 29.4 h
- Tmax [2]: 22.7 ± 10.1 h
- half-life [2]: 67.4 ± 9.47 h
- inhibition of the blood glucose AUC, times of that of Tirzepatide [3]: 2.0 times
- Hypoglycemic Duration ([3]; Group 2, longest time with p<0.05 vs. vehicle): 104 h
- AUC 4-25 day Glu ([4]; 3 nmol/kg): 268.28 ± 24.64 mmol·days/L
- D28 FBG(Fasting Blood Glucose) ([4]; 3 nmol/kg): 9.6 ± 1.32 mmol/L
- Liver Weight ([4]; 3 nmol/kg): 2.03 ± 0.09 g
- Serum ALT ([4]; 3 nmol/kg): 214.56±43.83 U/L
- Serum TBIL ([4]; 3 nmol/kg): 1.54 ± 0.25 µmol/L
- Serum TG ([4]; 3 nmol/kg): 1.37 ± 0.12 mmol/L
- AUC 4-25 day Glu ([4]; 10 nmol/kg): 290.78 ± 27.25 mmol·days/L
- D28 FBG(Fasting Blood Glucose) ([4]; 10 nmol/kg): 10.7 ± 1.62 mmol/L
- Liver Weight ([4]; 10 nmol/kg): 2.09 ± 0.1 g
- Serum ALT ([4]; 10 nmol/kg): 113.48±24.18 U/L
- Serum TBIL ([4]; 10 nmol/kg): 0.91 ± 0.05 µmol/L
- Serum TG ([4]; 10 nmol/kg): 1.07 ± 0.03 mmol/L
- AUC 4-25 day Glu ([4]; 30 nmol/kg): 184.18 ± 22.44 mmol·days/L
- D28 FBG(Fasting Blood Glucose) ([4]; 30 nmol/kg): 8.22 ± 1.07 mmol/L
- Liver Weight ([4]; 30 nmol/kg): 1.83 ± 0.16 g
- Serum ALT ([4]; 30 nmol/kg): 112.47±16.69 U/L
- Serum TBIL ([4]; 30 nmol/kg): 0.95 ± 0.28 µmol/L
- Serum TG ([4]; 30 nmol/kg): 1.2 ± 0.07 mmol/L
- GLP-1R Ki ratio [5]: 1.36

Reference: patent EP4813403A1, “USE OF GLP-1R/GIPR DOUBLE-TARGET AGONIST IN PREPARING ANIMAL DRUG” (Hangzhou Zhongmeihuadong Pharmaceutical Co., Ltd., priority 2023, dated 2025)
